Reference: ChEMBL document CHEMBL3352036, “Identification of 4'-O-β-D-glucosyl-5-O-methylvisamminol as a novel epigenetic suppressor of histone H3 phosphorylation at Ser10 and its interaction with 14-3-3ε” (Bioorg Med Chem Lett, 2014)
Each block holds one compound with its values, some of them ahead of it. Activity calls are given as the source filed them. No cut-off for these calls is given here.

Legend:
[1] = tested on: HT-29; assay: Toxicity against human HT-29 cells assessed as effect on cell viability at 10 uM incubated for 24 hrs by MTT assay; type: cell-based; conditions: ht-29, 24 h
[2] = biological target: T1, 14-3-3 protein epsilon (Homo sapiens) (UniProt P62258); assay: Inhibition of recombinant 14-3-3epsilon protein (unknown origin) expression in Escherichia coli assessed as reduction in 14-3-3epsilon and histone H3 Ser10 interaction using human HT-29 cells lysates at 1 uM incubated for 1 hr by Western blotting based GST-pull down assay
T1 sequence (whole entry): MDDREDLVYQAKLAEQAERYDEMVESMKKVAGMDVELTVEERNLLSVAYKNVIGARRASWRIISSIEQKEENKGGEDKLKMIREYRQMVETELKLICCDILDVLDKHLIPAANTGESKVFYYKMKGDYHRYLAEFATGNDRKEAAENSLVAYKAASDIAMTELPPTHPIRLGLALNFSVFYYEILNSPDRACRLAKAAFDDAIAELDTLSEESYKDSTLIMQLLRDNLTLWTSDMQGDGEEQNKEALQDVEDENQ

[3] = tested on: HT-29; assay: Induction of cell cycle arrest in human HT-29 cells assessed as accumulation at G2/M phase at 10 uM incubated for 6 hrs by propidium iodide staining based FACS assay (reference value: 14.8%); type: functional
[4] = tested on: HT-29; assay: Induction of HO-1 protein protein expression in human HT-29 cells at 10 uM incubated for 6 to 24 hrs by Western blotting method; type: functional, cell-based
[5] = tested on: HT-29; assay: Inhibition of histone H3 Ser10 phosphorylation in human HT-29 cells at 10 uM incubated for 1 hr by Western blotting method; type: functional, cell-based
[6] = biological target: T2, Aurora kinase C (Homo sapiens) (UniProt Q9UQB9); assay: Inhibition of Aurora C kinase phosphorylation in human HT-29 cells at 10 uM incubated for 15 to 120 mins by Western blotting method; type: cell-based
T2 sequence (whole entry): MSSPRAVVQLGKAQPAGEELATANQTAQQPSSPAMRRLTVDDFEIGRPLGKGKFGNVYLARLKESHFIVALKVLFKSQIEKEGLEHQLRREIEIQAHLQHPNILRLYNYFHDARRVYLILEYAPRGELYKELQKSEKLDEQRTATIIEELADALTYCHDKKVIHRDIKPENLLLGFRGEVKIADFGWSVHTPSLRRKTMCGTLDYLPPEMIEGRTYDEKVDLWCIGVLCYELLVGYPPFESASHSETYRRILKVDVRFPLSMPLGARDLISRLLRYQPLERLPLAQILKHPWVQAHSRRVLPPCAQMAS

[7] = tested on: HT-29; assay: Induction of cell cycle arrest in human HT-29 cells assessed as accumulation at G2/M phase at 10 uM incubated for 24 hrs by propidium iodide staining based FACS assay (reference value: 14.8%); type: functional
[8] = biological target: MAP kinase p38 (Homo sapiens) (UniProt O15264+Q15759+Q16539+P53778); assay: Inhibition of p38 phosphorylation in human HT-29 cells at 10 uM incubated for 15 to 120 mins by Western blotting method; type: cell-based
[9] = tested on: HT-29; assay: Inhibition of c-Jun protein expression in human HT-29 cells at 10 uM incubated for 1 hr by Western blotting method; type: functional, cell-based
[10] = tested on: HT-29; assay: Induction of cell cycle arrest in human HT-29 cells assessed as accumulation at G0/G1 phase at 10 uM incubated for 24 hrs by propidium iodide staining based FACS assay (reference value: 60.39%); type: functional
[11] = tested on: HT-29; assay: Induction of cell cycle arrest in human HT-29 cells assessed as accumulation at G0/G1 phase at 10 uM incubated for 6 hrs by propidium iodide staining based FACS assay (reference value: 60.39%); type: functional
[12] = biological target: Mitogen-activated protein kinase 9 (Homo sapiens) (UniProt P45984); assay: Inhibition of JNK2 phosphorylation in human HT-29 cells at 10 uM incubated for 15 to 120 mins by Western blotting method; type: cell-based
[13] = tested on: HT-29; assay: Induction of cell cycle arrest in human HT-29 cells assessed as accumulation at S phase at 10 uM incubated for 24 hrs by propidium iodide staining based FACS assay (reference value: 21.94%); type: functional
[14] = biological target: Mitogen-activated protein kinase 8 (Homo sapiens) (UniProt P45983); assay: Inhibition of JNK1 phosphorylation in human HT-29 cells at 10 uM incubated for 15 to 120 mins by Western blotting method; type: cell-based
[15] = tested on: HT-29; assay: Induction of Nrf2 protein protein expression in human HT-29 cells at 10 uM incubated for 6 to 24 hrs by Western blotting method; type: functional, cell-based
[16] = tested on: HT-29; assay: Induction of cell cycle arrest in human HT-29 cells assessed as accumulation at S phase at 10 uM incubated for 6 hrs by propidium iodide staining based FACS assay (reference value: 21.94%); type: functional
[17] = biological target: Aurora kinase B (Homo sapiens) (UniProt Q96GD4); assay: Inhibition of Aurora B kinase phosphorylation in human HT-29 cells at 10 uM incubated for 15 to 120 mins by Western blotting method; type: cell-based
[18] = tested on: HT-29; assay: Inhibition of 14-3-3epsilon protein expression in human HT-29 cells at 10 uM incubated for 1 to 4 hrs by Western blotting method; type: functional, cell-based
[19] = tested on: HT-29; assay: Induction of cell cycle arrest in human HT-29 cells assessed as accumulation at subG1 phase at 10 uM incubated for 24 hrs by propidium iodide staining based FACS assay (reference value: 0.79%); type: functional
[20] = biological target: T3, Aurora kinase A (Homo sapiens) (UniProt O14965); assay: Inhibition of Aurora A kinase phosphorylation in human HT-29 cells at 10 uM incubated for 15 to 120 mins by Western blotting method; type: cell-based
T3 sequence (whole entry): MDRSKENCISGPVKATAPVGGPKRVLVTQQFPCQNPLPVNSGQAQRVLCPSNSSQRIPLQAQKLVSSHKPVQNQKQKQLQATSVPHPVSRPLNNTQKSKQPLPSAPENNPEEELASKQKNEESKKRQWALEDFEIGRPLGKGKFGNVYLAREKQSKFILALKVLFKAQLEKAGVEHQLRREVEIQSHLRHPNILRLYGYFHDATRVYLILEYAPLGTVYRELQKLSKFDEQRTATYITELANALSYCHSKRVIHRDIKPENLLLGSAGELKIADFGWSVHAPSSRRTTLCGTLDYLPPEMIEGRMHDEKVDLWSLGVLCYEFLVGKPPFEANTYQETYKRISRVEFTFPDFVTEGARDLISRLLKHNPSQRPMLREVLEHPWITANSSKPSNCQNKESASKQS

[21] = tested on: HT-29; assay: Induction of cell cycle arrest in human HT-29 cells assessed as accumulation at subG1 phase at 10 uM incubated for 6 hrs by propidium iodide staining based FACS assay (reference value: 0.79%); type: functional

Mitogen-activated protein kinase 9 (Homo sapiens), sequence (P45984 whole entry, looked up): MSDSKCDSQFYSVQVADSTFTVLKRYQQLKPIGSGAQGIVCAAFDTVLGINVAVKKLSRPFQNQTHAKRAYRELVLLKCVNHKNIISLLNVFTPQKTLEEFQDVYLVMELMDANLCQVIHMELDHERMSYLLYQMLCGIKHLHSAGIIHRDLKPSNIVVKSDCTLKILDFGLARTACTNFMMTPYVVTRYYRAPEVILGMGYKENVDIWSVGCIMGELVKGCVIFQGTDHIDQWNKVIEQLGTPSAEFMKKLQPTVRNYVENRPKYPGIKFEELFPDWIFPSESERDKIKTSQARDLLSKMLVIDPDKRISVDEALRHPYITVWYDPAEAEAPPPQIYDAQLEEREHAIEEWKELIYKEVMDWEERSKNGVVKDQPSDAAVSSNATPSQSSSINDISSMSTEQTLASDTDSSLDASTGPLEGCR
Aurora kinase B (Homo sapiens), sequence (Q96GD4 whole entry): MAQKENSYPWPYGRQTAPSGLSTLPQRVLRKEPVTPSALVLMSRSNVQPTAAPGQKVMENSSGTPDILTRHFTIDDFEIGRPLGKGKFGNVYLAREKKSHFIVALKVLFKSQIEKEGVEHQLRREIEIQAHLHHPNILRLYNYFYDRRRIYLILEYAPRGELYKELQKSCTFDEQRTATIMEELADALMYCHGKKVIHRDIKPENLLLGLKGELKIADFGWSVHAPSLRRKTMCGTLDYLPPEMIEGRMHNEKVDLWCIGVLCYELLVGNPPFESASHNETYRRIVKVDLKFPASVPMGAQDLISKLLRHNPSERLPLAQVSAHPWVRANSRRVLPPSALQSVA
Mitogen-activated protein kinase 8 (Homo sapiens), sequence (P45983 whole entry): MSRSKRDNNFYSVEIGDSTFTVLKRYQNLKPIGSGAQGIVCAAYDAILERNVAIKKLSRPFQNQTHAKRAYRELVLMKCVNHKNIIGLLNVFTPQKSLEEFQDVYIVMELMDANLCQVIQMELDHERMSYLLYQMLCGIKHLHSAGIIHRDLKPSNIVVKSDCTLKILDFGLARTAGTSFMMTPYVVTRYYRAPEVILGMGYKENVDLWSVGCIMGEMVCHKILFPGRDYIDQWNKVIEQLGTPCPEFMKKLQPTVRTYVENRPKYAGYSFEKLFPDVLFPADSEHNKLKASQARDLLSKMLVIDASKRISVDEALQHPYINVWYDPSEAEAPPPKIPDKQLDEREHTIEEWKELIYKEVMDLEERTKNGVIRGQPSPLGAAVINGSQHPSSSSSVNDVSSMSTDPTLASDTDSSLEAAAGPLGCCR

inhibition [2]: Active | inhibition [6]: Active | inhibition [8]: inactive | inhibition [12]: Active | inhibition [14]: Active | inhibition [17]: Active | inhibition [20]: Active
SMILES: COc1c2c(cc3oc(C)cc(=O)c13)OC(C(C)(C)O[C@H]1O[C@@H](CO)[C@H](O)[C@@H](O)[C@@H]1O)C2 (stereo partly drawn)
Activity [1]: Non-toxic | Activity [3]: 21.86% | Activity [4]: Active | inhibition [5]: Active | Activity [7]: 22.29% | inhibition [9]: Active | Activity [10]: 59.07% | Activity [11]: 58.61% | Activity [13]: 15.97% | Activity [15]: Active | Activity [16]: 16.85% | inhibition [18]: inactive | Activity [19]: 0.88% | Activity [21]: 1.06%

inhibition [2]: inactive
SMILES: CC1(C)CC[C@]2(C(=O)O)CC[C@]3(C)C(=CC[C@@H]4[C@@]5(C)CC[C@H](O)C(C)(C)[C@@H]5CC[C@]43C)[C@@H]2C1
inhibition [5]: Active | inhibition [9]: Active | inhibition [18]: inactive

inhibition [2]: inactive
SMILES: C[C@H]1[C@H](C)CC[C@]2(C)CC[C@]3(C)C(=CC[C@@H]4[C@@]5(C)CC[C@H](O)C(C)(C)[C@@H]5CC[C@]43C)[C@H]12
inhibition [5]: Active | inhibition [9]: Active | inhibition [18]: inactive

inhibition [2]: inactive
SMILES: CCCCCCCCCCCCC/C=C1/C(=O)O[C@H](C)[C@@H]1O
inhibition [5]: Active | inhibition [9]: Active | inhibition [18]: inactive
